According to patent EP0065226A2, “Sulfenamides, process for their preparation, their utilisation as medicines and their preparation” (BAYER AG, priority 1981, dated 1982):

Experiments:
Plättchenlipoxygenase = molecular target: T1, Plättchenlipoxygenase (Homo sapiens, UniProt P18054); assay: Inhibition of platelet lipoxygenase (HETE synthesis), metabolism of radiolabelled arachidonic acid in washed human platelets; assay type: cell-based; conditions: HETE-Synthese, gewaschene Humanthrombozyten; lowest concentration giving at least 50 % inhibition
T1 construct: der Metabolismus radioaktiv markierter Arachidonsäure an gewaschenen Humanthrombozyten herangezogen; endogenous in cells; host or cells: washed human platelets
T1 sequence (P18054 1-663): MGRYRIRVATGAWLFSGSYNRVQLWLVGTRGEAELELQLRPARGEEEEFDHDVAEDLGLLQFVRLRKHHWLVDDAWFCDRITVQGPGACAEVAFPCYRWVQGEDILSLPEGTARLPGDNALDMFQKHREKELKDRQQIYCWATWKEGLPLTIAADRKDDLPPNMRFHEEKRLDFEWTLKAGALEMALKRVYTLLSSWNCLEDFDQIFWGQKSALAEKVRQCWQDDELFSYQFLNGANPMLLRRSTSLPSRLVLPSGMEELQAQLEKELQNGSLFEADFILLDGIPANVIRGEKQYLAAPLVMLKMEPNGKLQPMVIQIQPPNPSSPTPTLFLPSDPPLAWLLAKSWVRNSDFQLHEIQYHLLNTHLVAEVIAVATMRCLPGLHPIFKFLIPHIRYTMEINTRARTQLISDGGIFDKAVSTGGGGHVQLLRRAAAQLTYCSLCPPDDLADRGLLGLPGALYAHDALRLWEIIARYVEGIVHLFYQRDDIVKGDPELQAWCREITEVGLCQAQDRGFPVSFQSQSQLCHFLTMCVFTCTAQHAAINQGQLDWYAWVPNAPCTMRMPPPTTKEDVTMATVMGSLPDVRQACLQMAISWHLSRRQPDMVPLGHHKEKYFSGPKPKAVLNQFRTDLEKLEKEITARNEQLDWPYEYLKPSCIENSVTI
Text: Der Nachweis der lipoxygenasehemmenden Eigenschaften der Sulfenamide erfolgt analog der Methode von Bailey et al., J. Biol. Chem. 255, 5996, (1980) und nach Blackwell und Flower, Brostaglandins 16, 417 (1979). Bei dieser Testmethode wird der Metabolismus radioaktiv markierter Arachidonsäure an gewaschenen Humanthrombozyten herangezogen. Bei diesem in vitro Test werden die radioaktiv markierten Metaboliten aus dem Reaktionsansatz extrahiert und dünnschichtchromatographisch getrennt. Das Autoradiogramm wird am Dünnschicht-Scanner ausgewertet. Bei diesen Testbedingungen werden die markierten Metaboliten von der nicht umgesetzten Arachidonsäure getrennt und sind anschließend quantitativ auswertbar. Die Verteilung der Radioaktivität auf die während der Metabolisierung gebildeten Cyclooxygenaseprodukte Thromboxan B2 (TXB2) und 12-Hydroxy-5,8,10-heptadekatriensäure (HHT) bzw. das Lipoxygenaseprodukt 12-Hydroxy-5,8,11,14-eikosatetraensäure (HETE) unter dem Einfluß der Inhibitoren stellt ein Maß für die Hemmung der Enzyme dar.
Die Lipoxygenasehemmung der erfindungsgemäßen Sulfenamide läßt sich an der Hemmung der HETE-Synthese messen.. Es zeigt sich, daß die Synthese von TXB2und von HHT unbeeinflußt bleibt, während der Arachidonsäureumsatz abnimmt. Wie aus der nachfolgenden Tabelle ersichtlich ist, bewirken die Sulfenamide eine signifikante Hemmung der Plättchenlipoxygenase (HETE-Synthese).
Hemmung der Plättchenlipoxygenase (HETE-Synthese)

Leukozytenmigration = assay: Inhibition of leukocyte migration, drug-soaked sponge implanted under the dorsal skin of rats; assay type: in vivo, Ratten; conditions: Dosis, lokal 10 mg/Ratte; sponge soaked with compound under the dorsal skin
Text: Die erfindungsgemäßen Sulfenamide sind auch […] wirksam. Diese Wirkung wird durch die Messung der Hemmung der Leukozytenmigration nach an sich bekannten Methoden nachgewiesen (vgl. Higgs et al., Biochemical Pharmacology 28, 1959 (1979) und Eur. J. Pharmacol. 66, 81 (1980)). In der nachfolgenden Tabelle 2 sind die Wirkungen einiger beispielhafter Sulfenamide nach lokaler Applikation, durch Einführen eines mit Wirkstoff getränkten Schwämmchens unter die Rückenhaut von Ratten, zusammengefaßt.

Row | SMILES | Minimale effektive Hemmkonzen-zentration (mindestens 50 % Hemmung) (Plättchenlipoxygenase) | Hemmung der Leukozyten-migration (Kontrolle = 0 %) (Leukozytenmigration)
1 | c1ccc(SNc2ncccn2)cc1 [Beispiel 2] | 10^-6 g/ml | 45%
2 | Clc1c(Cl)c(Cl)c(SNc2ncccn2)c(Cl)c1Cl [Beispiel 4] | 10^-6 g/ml | 
3 | Clc1ccc(SNc2ncccn2)cc1 [Beispiel 5] | 10^-6 g/ml | 
4 | CC(C)(C)c1ccc(SNc2ncccn2)cc1 [Beispiel 6] | 10^-6 g/ml | 
5 | Clc1ccc(SNc2nc[nH]n2)cc1 [Beispiel 10] | 3e-06 g/mL | 
6 | c1ccc(SNc2nc[nH]n2)cc1 [Beispiel 11] |  | 76%
7 | c1ccc(SNc2nc(-c3ccccc3)ns2)cc1 [Beispiel 12] | 3e-06 g/mL | 35%
8 | Clc1ccc(SNc2nc(-c3ccccc3)ns2)cc1 [Beispiel 13] | 10^-6 g/ml | 
9 | Cc1nsc(NSc2ccccc2)n1 [Beispiel 16] | 3e-06 g/mL | 67%
10 | Cc1nsc(NSc2ccc(Cl)cc2)n1 [Beispiel 17] | 10^-6 g/ml | 53%
11 | Cc1nc(NSc2ccccc2)ns1 [Beispiel 18] | 10^-6 g/ml | 
12 | CCCc1nsc(NSc2ccccc2)n1 [Beispiel 19] | 3e-06 g/mL | 
13 | CCCc1nsc(NSc2ccc(Cl)cc2)n1 [Beispiel 20] | 3e-06 g/mL | 
14 | Clc1ccc(SNc2ccccn2)cc1 [Beispiel 23] | 10^-5 g/ml | 
15 | O=C1C(Sc2ccccc2)C(NSc2ccccc2)=NN1c1ccccc1 (stereo not drawn) [Beispiel 24] | 3e-06 g/mL | 
16 | Cc1nnc(NSc2ccccc2)s1 [Beispiel 25] |  | 80%
17 | FC(F)(F)c1cc(SNc2nc[nH]n2)ccc1Cl [Beispiel 28] |  | 29%
18 | COC(=O)c1ccc(SNc2nc[nH]n2)cc1 [Beispiel 30] |  | 31%
19 | Clc1ccc(SNc2nnc(N3CCOCC3)s2)cc1 [Beispiel 37] |  | 22%
20 | Cc1nnc(NSc2ccc(Cl)cc2)s1 [Beispiel 39] |  | 60%
